One molecule from US9580398B2, “Compounds, compositions, and methods for modulating ferroptosis and treating excitotoxic disorders” (The Trustees of Columbia University in the City of New York, priority 2012, dated 2017) can be followed below.

What all share (type): cell-based, human
Assay [1] concerns erastin (10 μM)-treated HT-1080 cells. Description: Inhibition of death in erastin (10 μM)-treated HT-1080 cells, viability by Alamar Blue. The note with it: inhibition of death in erastin (10 μM)-treated HT-1080 cells; Alamar Blue; from dose response curves. The protocol:
(§1) Cell viability was typically assessed in 384-well format by Alamar Blue (Invitrogen) fluorescence (ex/em 530/590) measured on a Victor3 platereader (Perkin Elmer, Waltham, Mass.). In some experiments, Trypan Blue dye exclusion counting was performed using an automated cell counter (ViCell, Beckman-Coulter Inc., Brea, Calif.). Cell viability in test conditions is reported as a percentage relative to the negative control treatment.
Flow cytometry data was analyzed using FloJo (9.3.2, Tree Star, Inc., Ashland, Oreg.). Chemical structures were drawn using ChemDraw Ultra (Cambridgesoft, Cambridge, Mass.). Computational determination of log P (Slog P function) was performed using MOE 2010.10 (Chemical Computing Group, Montreal, […].). Viability data was analyzed using Excel (Microsoft Corp., […].). Summary data and heatmaps were generated using R. Dose-response curves were computed by 4-parameter logistic regression in Prism 5.0c (GraphPad Software). Images were manipulated using Photoshop CS4 and Illustrator CS4 (Adobe, San Jose, Calif.).
The ability of various compounds disclosed herein to inhibit death in erastin (10 μM)-treated HT-1080 cells were tested. Cell viability was assessed by Alamar Blue. EC50 values (nM) were computed from dose response curves.
On the technique in general: The colour change of resazurin is a common sign of viable cells or microbes.

Assay [2] concerns HT-1080 cells. Description: LOC library screening and confirmation: inhibition of erastin-induced ferroptosis. The note with it: LOC library screening and confirmation studies, read-out: EC50, inhibitor of erastin-induced ferroptosis. As to the method: The LOC library was screened over the course of several days. 384-well glass bottom assay plates (Corning) were seeded with 1,000 HT-1080 cells/well the day before the experiment. The day of the experiment, LOC mother plates were thawed at room temperature for 1 hour and spun at 1000 rpm for 1 minute prior to use. Using a BioMek liquid handing robot, 2 μL of compound solution from each LOC library mother plate was transferred to a 384 deep well “daughter” plate (Grenier) containing 148 μL of cell culture media. The cell culture media in each assay plate was then removed by flicking and, using a BioMek FX, replaced with 36 μL of growth media containing erastin (5 μM final). To this was added 4 μL of the drug solution from the daughter plate, for a final screening concentration of 5.3 μg/mL for each LOC library compound. 4 wells containing DMSO alone (no erastin), 4 wells containing 100 μM DFO alone (no erastin), 4 wells containing erastin plus DMSO, and 4 wells containing erastin plus 100 μM DFO (positive control) were included as controls on each plate. Each drug daughter plate was aliquoted separately to duplicate assay plates. Plates were then spun briefly (1000 rpm, 5 seconds) and returned to the 37° C. tissue culture incubator. 24 hours later, cell viability was assessed by Alamar Blue as described above.
Candidate hits from the LOC library screen were identified. […]

In assay [3] the test system is HT-1080 cells. Description: HT-1080 cell proliferation (Vi-Cell). The note with it: over 48 hours. The protocol:
as §1

One may read the EC50 as the concentration needed to bring the measured effect to its halfway point. For `CCOC(=O)c1ccc(NC2CCCCC2)c(N)c1` [Fer-1, ferrostatin-1], the concentration for a half-maximal effect (EC50) in assay [1] turned out to be 95 nM; in assay [2], 60 nM. In assay [3], the HT-1080 cell proliferation result is on record as “did not inhibit ERK phosphorylation or arrest the proliferation of HT-1080 cells”.
